Reference: paper PMC8426299, “Effect of severe renal impairment on the pharmacokinetics of brigatinib” (Investigational New Drugs, 2021)
“Also recorded” adds a separate entry of the source. Read-outs that look alike come from different tables or passages of the source.

Key:
[1] = design: method as in earlier work; conditions: cited from earlier work
native EML4-ALK = system: native EML4-ALK; design: method as in PMID 27780853; conditions: compared with crizotinib, ceritinib, and alectinib; nonclinical studies; cited from earlier work
[2] = design: method as in PMID 32816246; conditions: eGFR 30 to < 90 mL/min/1.73 m^2; population PK analyses; cited from earlier work
[3] = Open-label single-dose (brigatinib 90 mg oral, fasting) plasma pharmacokinetic study, severe renal impairment vs matched healthy volunteers; format: in vivo, human; design: Cmax,u LS Mean (SE): unit not given beside the values; conditions: for half-life / Cmax: human, plasma, 90 mg; for half-life: oral, after a single dose, read-out: mean t1/2 (converted); for Cmax: po, read-out: total brigatinib Cmax, geometric mean (CV%); for Cmax / Tmax, median (range): single oral 90 mg; for V/F,u, geometric mean (geometric % CV): unbound apparent volume of distribution; for Cmax,u, Range / Cmax,u, geometric mean (geometric % CV): unbound
Procedure: This was an open-label, parallel-group study that enrolled patients with severe renal impairment and matched healthy volunteers with normal renal function. The study consisted of a 28-day screening period and a single nine-day inpatient treatment period (day − 1 to day 8). On the morning of day 1, each participant received a single oral dose of brigatinib 90 mg under fasting conditions.Participants were required to abstain from food for approximately 10 h prior to study drug administration and for approximately four hours postdose, with the exception of the standardized snack. Due to the high prevalence of diabetes in patients with severe renal impairment, the standardized snack (not high fat or high calorie) was given to all participants at 2.5 h postdose. Water was permitted ad libitum except for one hour prior to dosing and for approximately one hour postdose. Participants underwent end-of-study procedures and were discharged from the clinical site on day 8.
Healthy volunteers with normal renal function (eGFR ≥ 90 mL/min/1.73 m^2) were matched to patients with severe renal impairment by age (± 10 years), sex, body mass index (BMI; ±15 % at screening), and if possible, smoking habits. Patients with severe renal impairment were defined as those with an eGFR < 30 mL/min/1.73 m^2. eGFR was calculated using the Modification of Diet in Renal Disease equation (MDRD). Estimated creatinine clearance was based on the Cockcroft-Gault equation.
Blood samples were collected before brigatinib administration (predose) and at 0.5, 1, 1.5, 2, 2.5, 3, 4, 6, 8, 12, 24, 36, 48, 60, 72, 96, 120, 144, and 168 h after brigatinib administration to determine plasma brigatinib concentrations. Urine was collected predose and during intervals (0–8, 8–12, 12–24, 24–48, 48–72, 72–96, 96–120, and 120–168 h) after brigatinib administration to determine urine brigatinib concentrations. Urine samples were subsequently diluted 50:50 (v:v) urine:isopropanol at the clinical site.
Plasma and urine samples were analyzed by Charles River Laboratories, Inc. (Worcester, MA, USA) by LC-MS/MS, as previously reported. Plasma samples were analyzed using a dual-range assay with a lower limit of quantitation of 0.100 ng/mL and an upper limit of 2500 ng/mL [11]. Urine samples were analyzed using a single-range assay with a lower limit of quantitation of 25.0 ng/mL and upper limit of 2500 ng/mL [11].
(§1) Individual participant plasma concentration-time profiles were analyzed via noncompartmental analysis methods using Phoenix WinNonlin (version 6.4) to estimate PK parameters. Plasma PK parameters calculated for brigatinib included maximum observed plasma concentration (Cmax); Tmax; area under the plasma concentration-time curve from time zero to the time of the last measurable concentration (AUC0 − last); AUC from time zero to infinity (AUC0−∞); terminal elimination half-life (t1/2); apparent oral clearance (CL/F); and apparent volume of distribution (V/F). The fraction of unbound brigatinib in plasma was determined using the following formula: % free (unbound) = [free brigatinib concentration measured in buffer after RED]/[total concentration measured in plasma] X 100. Unbound brigatinib plasma PK parameters (except unbound CL/F and V/F, which were calculated as total CL/F or total V/F divided by the overall mean fraction unbound) were calculated using the following formula: unbound PK parameter = (parameter based on total concentrations) x (individual participant’s overall mean fraction unbound value). Urinary PK parameters included the amount of brigatinib excreted from time zero to time t (Ae0 − t,), fraction of the dose excreted (%) from time zero to time t (Fe0 − t), and renal clearance (CLR).
Descriptive statistics, including number of observations (n), arithmetic mean, standard deviation (SD), coefficient of variation (CV%), median, minimum, and maximum, were calculated for each time point for brigatinib plasma concentrations in each study group. […]

ALK + NSCLC = system: ALK + NSCLC; design: method as in PMID 32780660; conditions: cited from earlier work
plasma protein = test: Plasma protein binding of brigatinib by rapid equilibrium dialysis (RED) of participants' plasma samples; format: in vitro ADME, human
Procedure: (§2) Blood samples were collected at 2, 8, and 24 h after brigatinib administration to determine the plasma protein binding of brigatinib.
(§3) Free brigatinib in plasma samples was separated from protein-bound brigatinib by dialyzing the samples across a semipermeable dialysis membrane (8000-Da mass cutoff) using Thermo Scientific™ Single-Use RED (rapid equilibrium dialysis) Plates. For each RED dialysis unit, an aliquot (200 µL) of plasma was transferred into the donor chamber and an aliquot (350 µL) of warm (37 °C) phosphate buffered saline (PBS) was transferred into the receiver chamber of the dialysis unit. The RED devices were incubated at 37 °C with gentle shaking (250 rpm on a rotator shaker) for six hours. A 125-µL aliquot of plasma and 150-µL aliquot of PBS were removed from the dialysis unit and matrix-matched to a final composition of 50:50 (v:v) plasma:PBS, in Rain-X® treated 96-well plates. The matrix-matched samples were immediately frozen at − 80 °C. The protein binding assay and sample analysis were conducted at Charles River Laboratories, Inc. (Worcester, MA, USA). Samples were analyzed for brigatinib concentrations using liquid chromatography with tandem mass spectrometry (LC-MS/MS) methods that have been previously reported using a dual-range assay with a lower limit of quantitation of 0.100 ng/mL and an upper limit of quantitation of 500 ng/mL.
as §1

[4] = as above; format: in vitro ADME, human; conditions: human, plasma samples of dosed participants, averaged over 2, 8, 24 h postdose, read-out: overall mean (SD) fraction unbound (converted)
Procedure: as §2, §3, §1

[5] = Severe Renal Impairment (n = 8)
[6] = healthy volunteers with normal renal function
[7] = patients with severe renal impairment
[8] = severe renal impairment compared with normal renal function
[9] = brigatinib vs crizotinib, P < 0.0001

V/F,u, Range ([3]; Normal Renal Function (n = 8)): 5898–13,744 L
V/F,u, Range [3, 5]: 3556 to 8914 L
Cmax,u LS Mean (SE) ([3]; Severe renal impairment vs. Normal renal function): 0.130 (0.1330)
half-life [3, 6]: ~42 h
half-life [3, 7]: ~54 h
Cmax [3, 6]: 362 ng/mL
Cmax [3, 7]: 471 ng/mL
Tmax, median (range) ([3]; normal renal function group): 2.0 (1.0–4.0) hours
total brigatinib AUC0 − last, percent higher [3, 8]: more than 100%
total brigatinib AUC0−∞, percent higher [3, 8]: more than 100%
Tmax, median (range) ([3]; severe renal impairment group): 2.5 (1.0–3.0) hours
unbound brigatinib AUC0 − last, percent higher ([3]; severe renal impairment versus normal renal function): 77%
V/F,u, geometric mean (geometric % CV) ([3]; Normal Renal Function (n = 8)): 8327 (30.4) L
V/F,u, geometric mean (geometric % CV) [3, 5]: 5532 (31.4) L
Cmax,u, Range ([3]; Normal Renal Function (n = 8)): 23.9 to 45.3 ng/mL
Cmax,u, geometric mean (geometric % CV) ([3]; Normal Renal Function (n = 8)): 32.29 (25.1) ng/mL
Cmax,u, Range [3, 5]: 25.2 to 55.6 ng/mL
Cmax,u, geometric mean (geometric % CV) [3, 5]: 36.76 (29.0) ng/mL
concentration dependence of protein binding (plasma protein; mean fraction unbound at 2, 8, 24 h postdose, both renal function groups): not concentration-dependent
effect of severe renal impairment on brigatinib plasma protein binding (plasma protein; severe renal impairment vs normal renal function): no effect
fraction unbound at 6 h [4, 6]: 0.09
fraction unbound at 6 h [4, 7]: 0.08
Compound: COc1cc(N2CCC(N3CCN(C)CC3)CC2)ccc1Nc1ncc(Cl)c(Nc2ccccc2P(C)(C)=O)n1 [brigatinib]
administered dose recovered in feces [1]: 65%
administered dose recovered in urine [1]: 25%
unchanged brigatinib as share of total radioactivity in feces [1]: 41%
unchanged brigatinib as share of total radioactivity in urine [1]: 86%
potency and selectivity as inhibitor of native EML4-ALK (native EML4-ALK): more potent and selective inhibitor of native EML4-ALK
effect of mild or moderate renal impairment on brigatinib exposure / PK [2]: not associated with clinically meaningful effects on brigatinib PK; also recorded: not found to impact brigatinib exposure
24-month PFS, blinded independent review committee-assessed (ALK + NSCLC; ALK inhibitor-naive patients): 48%
24-month PFS, investigator-assessed (ALK + NSCLC; ALK inhibitor-naive patients): 56%
PFS hazard ratio [95 % CI], blinded independent review committee-assessed (ALK + NSCLC; [9]): 0.49
PFS hazard ratio [95 % CI], investigator-assessed (ALK + NSCLC; [9]): 0.43 [0.31–0.61]
